EC50 data for 25 compounds are collected here from patent US12037322B2, “AHR agonists” (Eli Lilly and Company, priority 2021, dated 2024).

In this assay the target is T1, hAHR (Homo sapiens, UniProt P35869).
T1 construct: expressed in transfected cells
T1 sequence (P35869 11-848): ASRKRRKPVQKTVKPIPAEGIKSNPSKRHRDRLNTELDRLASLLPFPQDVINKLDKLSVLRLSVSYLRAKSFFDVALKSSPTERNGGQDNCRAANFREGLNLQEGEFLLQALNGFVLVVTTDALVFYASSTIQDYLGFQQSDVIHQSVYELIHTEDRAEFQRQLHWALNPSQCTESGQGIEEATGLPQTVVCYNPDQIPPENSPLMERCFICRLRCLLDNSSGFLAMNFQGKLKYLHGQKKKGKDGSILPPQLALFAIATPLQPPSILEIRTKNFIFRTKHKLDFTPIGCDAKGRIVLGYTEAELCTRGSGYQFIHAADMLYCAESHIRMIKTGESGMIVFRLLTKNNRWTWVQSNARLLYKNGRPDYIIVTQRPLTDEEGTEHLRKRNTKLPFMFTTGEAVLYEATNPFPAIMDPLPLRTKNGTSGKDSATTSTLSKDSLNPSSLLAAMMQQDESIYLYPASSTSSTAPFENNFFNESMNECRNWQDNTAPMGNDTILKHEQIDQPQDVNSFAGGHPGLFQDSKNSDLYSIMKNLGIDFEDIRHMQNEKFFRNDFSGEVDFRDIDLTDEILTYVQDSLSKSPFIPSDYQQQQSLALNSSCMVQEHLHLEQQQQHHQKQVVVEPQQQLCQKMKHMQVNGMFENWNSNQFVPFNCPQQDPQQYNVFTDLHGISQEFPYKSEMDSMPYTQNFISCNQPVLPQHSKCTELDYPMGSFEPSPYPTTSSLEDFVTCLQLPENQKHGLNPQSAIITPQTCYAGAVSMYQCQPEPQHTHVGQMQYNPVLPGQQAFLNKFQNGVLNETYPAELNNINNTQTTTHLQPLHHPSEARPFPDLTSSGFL
Nature of the assay: hAHR nuclear translocation assay. Format: cell-based. To be noted: Jump-In T-REx HEK293 cells expressing AhR-EGFP; 45 min incubation; ratio of EGFP intensity in nuclear over cytosol; 20-point curve. The method in brief:
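HEK293 cells with doxycycline-induced AhR-EGFP fusion treated 45 min at 37° C with compound (20-point 1:2 series, 0.2% DMSO) in DMEM/0.1% BSA, then methanol-fixed. Nuclear-to-cytosolic EGFP ratio imaged by high-content microscopy and fitted to a 4-parameter logistic for agonist potency.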

pEC50: −log10 of the molar value.

In the case of `Cn1c2c(c(O)c(C(=O)Nc3ccccn3)c1=O)CC(C)(C)C2` [Example 42, 4-Hydroxy-1,6,6-trimethyl-2-oxo-N-(2-pyridyl)-5,7-dihydrocyclopenta[b]pyridine-3-carboxamide], the pEC50 (as a rule, −log10 of the EC50, conventionally taken in molar units) is 8.03. With `Cn1c2c(c(O)c(C(=O)Nc3ncc(F)cn3)c1=O)C(C)(C)CC2` [Example 43, N-(5-Fluoropyrimidin-2-yl)-4-hydroxy-1,5,5-trimethyl-2-oxo-6,7-dihydrocyclopenta[b]pyridine-3-carboxamide], the pEC50 was 9.01.

In the case of `Cn1c2c(c(O)c(C(=O)Nc3ccc(F)cn3)c1=O)C(C)(C)CC2` [Example 44, N-(5-Fluoro-2-pyridyl)-4-hydroxy-1,5,5-trimethyl-2-oxo-6,7-dihydrocyclopenta[b]pyridine-3-carboxamide], the negative logarithm of the EC50 (pEC50) is 8.62. Turning to `Cn1c2c(cc(C(=O)Nc3ccccn3)c1=O)CC(C)(C)C2` [Example 45, 1,6,6-Trimethyl-2-oxo-N-(2-pyridyl)-5,7-dihydrocyclopenta[b]pyridine-3-carboxamide], the pEC50 was 7.79.

Turning to `Cn1c2c(cc(C(=O)Nc3ncccn3)c1=O)C(C)(C)CC2` [Example 46, 1,5,5-Trimethyl-2-oxo-N-pyrimidin-2-yl-6,7-dihydrocyclopenta[b]pyridine-3-carboxamide], the pEC50 was 7.50.

Turning to `Cn1c2c(cc(C(=O)Nc3ccccc3)c1=O)CC(C)(C)C2` [Example 47, 1,6,6-Trimethyl-2-oxo-N-phenyl-5,7-dihydrocyclopenta[b]pyridine-3-carboxamide], the pEC50 was 9.10. With `Cn1c2c(cc(C(=O)Nc3ccc(F)cn3)c1=O)CC(C)(C)C2` [Example 48, N-(5-Fluoro-2-pyridyl)-1,6,6-trimethyl-2-oxo-5,7-dihydrocyclopenta[b]pyridine-3-carboxamide] the figure was 7.95. On to `Cn1c2c(cc(C(=O)Nc3ccc(F)cn3)c1=O)CC(C)(C)CC2` [Example 49, N-(5-Fluoro-2-pyridyl)-1,6,6-trimethyl-2-oxo-7,8-dihydro-5H-quinoline-3-carboxamide], for which the pEC50 was 8.69. For `Cc1nc2ccc(NC(=O)c3cc4c(n(C)c3=O)CCC(C)(C)C4)cc2o1` [Example 50, 1,6,6-Trimethyl-N-(2-methyl-1,3-benzoxazol-6-yl)-2-oxo-7,8-dihydro-5H-quinoline-3-carboxamide], the pEC50 was 8.08. With `Cn1c2c(cc(C(=O)Nc3ccccc3)c1=O)COC(C)(C)C2` [Example 51, 1,7,7-Trimethyl-2-oxo-N-phenyl-5,8-dihydropyrano[4,3-b]pyridine-3-carboxamide] the figure was 8.36. With `CC1CCc2cc(C(=O)Nc3ccccc3)c(=O)n(C)c21` (stereo not shown) [Example 52, 1,7-Dimethyl-2-oxo-N-phenyl-6,7-dihydro-5H-cyclopenta[b]pyridine-3-carboxamide] the figure was 8.19; with `C[C@@H]1CCc2c1cc(C(=O)Nc1ccccc1)c(=O)n2C` [Example 66, (5R)-1,5-Dimethyl-2-oxo-N-phenyl-6,7-dihydro-5H-cyclopenta[b]pyridine-3-carboxamide], 9.28. As to `C[C@H]1CCc2c1cc(C(=O)Nc1ccccc1)c(=O)n2C` [Example 67, (5S)-1,5-Dimethyl-2-oxo-N-phenyl-6,7-dihydro-5H-cyclopenta[b]pyridine-3-carboxamide], the pEC50 was 9.30.

As for `C[C@@H]1CCc2c1cc(C(=O)Nc1ncco1)c(=O)n2C` [Example 74, (5R)-1,5-Dimethyl-N-oxazol-2-yl-2-oxo-6,7-dihydro-5H-cyclopenta[b]pyridine-3-carboxamide], the pEC50 is 7.72. With `C[C@H]1CCc2c1cc(C(=O)Nc1ncco1)c(=O)n2C` [Example 75, (5S)-1,5-Dimethyl-N-oxazol-2-yl-2-oxo-6,7-dihydro-5H-cyclopenta[b]pyridine-3-carboxamide] the figure was 7.75; with `CC1Cc2cc(C(=O)Nc3ncccn3)c(=O)n(C)c2C1` (stereo not shown) [Example 79, 1,6-Dimethyl-2-oxo-N-pyrimidin-2-yl-6,7-dihydro-5H-cyclopenta[b]pyridine-3-carboxamide], 7.69; with `Cn1c2c(cc(C(=O)Nc3ncccn3)c1=O)CCCC2` [Example 103, 1-Methyl-2-oxo-N-pyrimidin-2-yl-5,6,7,8-tetrahydroquinoline-3-carboxamide], 7.57. As for `Cn1c2c(cc(C(=O)Nc3ccccc3)c1=O)CCCC2` [Example 104, 1-Methyl-2-oxo-N-phenyl-5,6,7,8-tetrahydroquinoline-3-carboxamide], the pEC50 was 9.30. For `Cn1c2c(cc(C(=O)Nc3ccccc3)c1=O)CC(C)(C)CC2` [Example 105, 1,6,6-Trimethyl-2-oxo-N-phenyl-7,8-dihydro-5H-quinoline-3-carboxamide], the pEC50 was 9.19.

As for `Cn1c2c(cc(C(=O)Nc3ccccc3)c1=O)COCC2` [Example 106, 1-Methyl-2-oxo-N-phenyl-7,8-dihydro-5H-pyrano[4,3-b]pyridine-3-carboxamide], the pEC50 is 7.59. Regarding `CCN1CCc2c(cc(C(=O)Nc3ccccc3)c(=O)n2C)C1` [Example 107, 6-Ethyl-1-methyl-2-oxo-N-phenyl-7,8-dihydro-5H-1,6-naphthyridine-3-carboxamide], the pEC50 was 6.97. `Cn1c2c(cc(C(=O)Nc3ccccc3)c1=O)CCC2` [Example 108, 1-Methyl-2-oxo-N-phenyl-6,7-dihydro-5H-cyclopenta[b]pyridine-3-carboxamide]: the pEC50 was 8.60. For the compound `Cn1c2c(cc(C(=O)Nc3ccccc3)c1=O)CCCCC2` [Example 109, 1-Methyl-2-oxo-N-phenyl-6,7,8,9-tetrahydro-5H-cyclohepta[b]pyridine-3-carboxamide], the pEC50 was 8.98. For the compound `Cn1c2c(c(O)c(C(=O)Nc3ccccc3)c1=O)CC(C)(C)CC2` [Example 110, 4-Hydroxy-1,6,6-trimethyl-2-oxo-N-phenyl-7,8-dihydro-5H-quinoline-3-carboxamide], the pEC50 was 8.64. As for `CC(C)CCNC(=O)c1c(O)c2c(n(C)c1=O)CCCC2` [Example 111, 4-Hydroxy-N-isopentyl-1-methyl-2-oxo-5,6,7,8-tetrahydroquinoline-3-carboxamide], the pEC50 was 7.99.
